≈ marks a conversion by molar mass, not a printed value. Calls of active or inactive are those of the source. The calls are words filed in the database; no cut-off is given here.
Assays:
Enterococcus hirae [1] = test: Antimicrobial activity against Enterococcus hirae ATCC 10541 at 30 ug by disk diffusion method; format: functional, organism-based
Candida tropicalis [2] = test: Antimicrobial activity against Candida tropicalis IP 2031 at 30 ug by disk diffusion method; format: functional, organism-based
Pseudomonas aeruginosa [3] = test: Antimicrobial activity against Pseudomonas aeruginosa ATCC 15442 at 30 ug by disk diffusion method; format: functional, organism-based
Staphylococcus aureus [4] = test: Antimicrobial activity against Staphylococcus aureus ATCC 6538 at 30 ug by disk diffusion method; format: functional, organism-based
Candida albicans [5] = test: Antimicrobial activity against Candida albicans ATCC 90029 at 30 ug by disk diffusion method; format: functional, organism-based
Escherichia coli [6] = test: Antimicrobial activity against Escherichia coli ATCC 10536 at 30 ug by disk diffusion method; format: functional; settings: read-out: IZ
Candida tropicalis [7] = test: Antimicrobial activity against Candida tropicalis IP 2031 by disk diffusion method; format: functional
Enterococcus hirae [8] = test: Antimicrobial activity against Enterococcus hirae ATCC 10541 by disk diffusion method; format: functional, organism-based
Staphylococcus aureus [9] = test: Antimicrobial activity against Staphylococcus aureus ATCC 6538 by disk diffusion method; format: functional
Escherichia coli [10] = test: Antimicrobial activity against Escherichia coli ATCC 10536 by disk diffusion method; format: functional
Pseudomonas aeruginosa [11] = test: Antimicrobial activity against Pseudomonas aeruginosa ATCC 15442 by disk diffusion method; format: functional, organism-based
Candida tropicalis [12] = test: Antimicrobial activity against Candida tropicalis IP 2031 by broth microdilution method; format: functional
Staphylococcus aureus [13] = test: Antimicrobial activity against Staphylococcus aureus ATCC 6538 by broth microdilution method; format: functional
Candida albicans [14] = test: Antimicrobial activity against Candida albicans ATCC 90029 by disk diffusion method; format: functional, organism-based
Staphylococcus aureus [15] = test: Antimicrobial activity against Staphylococcus aureus ATCC 6538 at 20 ug by disk diffusion method; format: functional, organism-based
Escherichia coli [16] = test: Antimicrobial activity against Escherichia coli ATCC 10536 at 20 ug by disk diffusion method; format: functional, organism-based
Enterococcus hirae [17] = test: Antimicrobial activity against Enterococcus hirae ATCC 10541 at 20 ug by disk diffusion method; format: functional, organism-based
Candida albicans [18] = test: Antimicrobial activity against Candida albicans ATCC 90029 at 20 ug by disk diffusion method; format: functional; settings: read-out: IZ
Candida tropicalis [19] = test: Antimicrobial activity against Candida tropicalis IP 2031 at 20 ug by disk diffusion method; format: functional; settings: read-out: IZ
Pseudomonas aeruginosa [20] = test: Antimicrobial activity against Pseudomonas aeruginosa ATCC 15442 at 20 ug by disk diffusion method; format: functional, organism-based
Escherichia coli [21] = test: Antimicrobial activity against Escherichia coli ATCC 10536 at 10 ug by disk diffusion method; format: functional, organism-based
Enterococcus hirae [22] = test: Antimicrobial activity against Enterococcus hirae ATCC 10541 at 10 ug by disk diffusion method; format: functional, organism-based
Staphylococcus aureus [23] = test: Antimicrobial activity against Staphylococcus aureus ATCC 6538 at 10 ug by disk diffusion method; format: functional; settings: read-out: IZ
Candida tropicalis [24] = test: Antimicrobial activity against Candida tropicalis IP 2031 at 10 ug by disk diffusion method; format: functional, organism-based
Pseudomonas aeruginosa [25] = test: Antimicrobial activity against Pseudomonas aeruginosa ATCC 15442 at 10 ug by disk diffusion method; format: functional, organism-based
Candida albicans [26] = test: Antimicrobial activity against Candida albicans ATCC 90029 at 10 ug by disk diffusion method; format: functional, organism-based

| Compound | inhibition zone (IZ) (Candida tropicalis [7]) [mm] | Activity (Enterococcus hirae [8]) | inhibition zone (IZ) (Staphylococcus aureus [9]) [mm] | Activity (Escherichia coli [10]) | Activity (Pseudomonas aeruginosa [11]) | MIC (Candida tropicalis [12]) [µg/mL] | MIC (Staphylococcus aureus [13]) [µg/mL] | Activity (Candida albicans [14]) | other results |
| --- | --- | --- | --- | --- | --- | --- | --- | --- | --- |
| O=C(N[C@H](CO)[C@H](O)c1ccc([N+](=O)[O-])cc1)C(Cl)Cl [CHLORAMPHENICOL] | – | – | – | – | – | – | – | – | Activity (Enterococcus hirae [1]): inactive; Activity (Candida tropicalis [2]): inactive; Activity (Pseudomonas aeruginosa [3]): inactive; Activity (Staphylococcus aureus [4]): inactive; Activity (Candida albicans [5]): inactive; zone of inhibition at 30 µg/disc (Escherichia coli [6]): 34 mm |
| O=C(CS(=O)(=O)c1ccc([N+](=O)[O-])cc1)c1ccc([N+](=O)[O-])cc1 | 12 | inactive | 28 | inactive | inactive | 100 (≈ 285 µM) | 100 (≈ 285 µM) | inactive | – |
| Nc1ccc(S(=O)(=O)c2ccc(N)cc2)cc1 [DAPSONE] | – | – | – | – | – | > 100 | > 100 | – | – |
| OC(Cn1cncn1)(Cn1cncn1)c1ccc(F)cc1F [FLUCONAZOLE] | – | – | – | – | – | – | – | – | Activity (Staphylococcus aureus [15]): inactive; Activity (Escherichia coli [16]): inactive; Activity (Enterococcus hirae [17]): inactive; zone of inhibition at 20 µg/disc (Candida albicans [18]): 18 mm; zone of inhibition at 20 µg/disc (Candida tropicalis [19]): 21 mm; Activity (Pseudomonas aeruginosa [20]): inactive |
| O=C(CS(=O)(=O)c1cccc2ccccc12)c1ccc([N+](=O)[O-])cc1 | 12 | inactive | 10 | inactive | inactive | > 100 | > 100 | inactive | – |
| Cc1ccc(S(=O)(=O)CC(=O)c2ccc([N+](=O)[O-])cc2)cc1 | 22 | inactive | 11 | – | inactive | > 100 | > 100 | inactive | inhibition zone (IZ) (Escherichia coli [10]): 12 mm |
| CN[C@@H]1[C@H](O[C@H]2[C@H](O[C@H]3[C@H](O)[C@@H](O)[C@H](N=C(N)N)[C@@H](O)[C@@H]3N=C(N)N)O[C@@H](C)[C@]2(O)C=O)O[C@@H](CO)[C@H](O)[C@H]1O [STREPTOMYCIN] | – | – | – | – | – | – | – | – | Activity (Escherichia coli [21]): inactive; Activity (Enterococcus hirae [22]): inactive; zone of inhibition at 10 µg/disc (Staphylococcus aureus [23]): 27 mm; Activity (Candida tropicalis [24]): inactive; Activity (Pseudomonas aeruginosa [25]): inactive; Activity (Candida albicans [26]): inactive |
| O=C(CS(=O)(=O)c1ccc(Cl)cc1)c1ccc([N+](=O)[O-])cc1 | 19 | inactive | 24 | inactive | inactive | 100 (≈ 294 µM) | 100 (≈ 294 µM) | inactive | – |
| O=C(CS(=O)(=O)c1ccc(I)cc1)c1ccc([N+](=O)[O-])cc1 | – | inactive | 11 | inactive | inactive | > 100 | > 100 | inactive | Activity (Candida tropicalis [7]): inactive |
| O=C(CS(=O)(=O)c1ccc(F)cc1)c1ccc([N+](=O)[O-])cc1 | 19 | inactive | 25 | inactive | inactive | > 100 | > 100 | inactive | – |
| O=C(c1ccc([N+](=O)[O-])cc1)C(Cc1ccccc1)S(=O)(=O)c1ccccc1 (centres undefined) | – | inactive | – | inactive | inactive | – | – | inactive | Activity (Candida tropicalis [7]): inactive; Activity (Staphylococcus aureus [9]): inactive |

— ChEMBL document CHEMBL1147845, “Rapid synthesis of sulfone derivatives as potential anti-infectious agents” (2007)
